One molecule from PMC6391970, “Design, Synthesis and Characterization of Covalent KDM5 Inhibitors” (Angewandte Chemie (International Ed. in English), 2018) can be followed below.

In this experiment the target is KDM5C (Homo sapiens, UniProt P41229). The experiment is described as follows: Covalent binding by MS, KDM5C. The note with it: same conditions as with KDM5B.

The structures appear in SMILES notation.

Sequence of KDM5C (P41229 whole entry): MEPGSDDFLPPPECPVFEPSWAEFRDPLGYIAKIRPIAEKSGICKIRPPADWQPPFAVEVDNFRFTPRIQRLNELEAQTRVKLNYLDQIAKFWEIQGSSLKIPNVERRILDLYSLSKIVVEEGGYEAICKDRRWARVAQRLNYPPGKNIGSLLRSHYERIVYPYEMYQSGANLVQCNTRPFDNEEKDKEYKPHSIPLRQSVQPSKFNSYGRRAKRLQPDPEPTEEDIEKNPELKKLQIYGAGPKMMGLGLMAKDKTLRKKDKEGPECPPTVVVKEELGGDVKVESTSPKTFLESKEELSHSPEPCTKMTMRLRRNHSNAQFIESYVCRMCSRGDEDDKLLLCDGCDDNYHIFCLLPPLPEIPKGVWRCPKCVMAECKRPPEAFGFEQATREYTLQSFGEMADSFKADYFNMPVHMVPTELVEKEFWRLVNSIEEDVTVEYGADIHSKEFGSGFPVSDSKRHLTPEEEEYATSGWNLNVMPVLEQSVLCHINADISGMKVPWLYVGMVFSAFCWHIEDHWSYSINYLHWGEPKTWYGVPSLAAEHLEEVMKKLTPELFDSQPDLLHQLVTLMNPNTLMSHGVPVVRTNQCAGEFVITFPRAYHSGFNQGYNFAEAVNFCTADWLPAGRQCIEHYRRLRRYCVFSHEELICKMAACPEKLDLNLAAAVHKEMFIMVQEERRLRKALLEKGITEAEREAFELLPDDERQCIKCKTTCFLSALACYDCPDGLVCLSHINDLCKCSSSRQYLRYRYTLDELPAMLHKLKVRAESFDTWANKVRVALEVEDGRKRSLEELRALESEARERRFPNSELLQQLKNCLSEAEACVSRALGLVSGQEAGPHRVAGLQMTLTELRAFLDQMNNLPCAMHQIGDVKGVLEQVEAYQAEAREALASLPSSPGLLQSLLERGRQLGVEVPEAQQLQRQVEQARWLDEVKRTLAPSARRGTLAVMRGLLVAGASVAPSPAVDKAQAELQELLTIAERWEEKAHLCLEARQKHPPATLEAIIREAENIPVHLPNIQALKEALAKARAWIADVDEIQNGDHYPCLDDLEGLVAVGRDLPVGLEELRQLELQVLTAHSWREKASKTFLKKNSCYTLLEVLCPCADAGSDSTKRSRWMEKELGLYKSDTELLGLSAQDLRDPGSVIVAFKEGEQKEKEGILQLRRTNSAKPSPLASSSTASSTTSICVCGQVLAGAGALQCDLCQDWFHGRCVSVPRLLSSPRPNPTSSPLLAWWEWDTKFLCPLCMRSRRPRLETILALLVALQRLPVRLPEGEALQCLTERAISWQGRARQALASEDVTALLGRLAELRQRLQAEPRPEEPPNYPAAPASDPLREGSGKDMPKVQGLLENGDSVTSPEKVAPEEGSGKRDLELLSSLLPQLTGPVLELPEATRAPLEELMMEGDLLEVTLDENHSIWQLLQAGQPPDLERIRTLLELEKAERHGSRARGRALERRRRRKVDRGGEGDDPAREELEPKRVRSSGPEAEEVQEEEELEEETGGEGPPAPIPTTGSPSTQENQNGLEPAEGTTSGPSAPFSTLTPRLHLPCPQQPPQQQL

Turning to `CN(C)C/C=C/C(=O)Nc1cccc(CN(C)CCc2cnn(-c3nccc4c(=O)[nH]cnc34)c2)c1` [Compound 6], the “covalent binding to KDM5C by MS” value was “no covalent binding”.
